Calls of active or inactive are those of the source. No cut-off for these calls is given here.
Key:
[1] = test system: HepG2; assay: Induction of LDL uptake in human HepG2 cells incubated for 3 hrs under dark condition by DiI-LDL DMEM staining based fluorescence microplate reader assay; assay type: functional, cell-based
[2] = biological target: Proprotein convertase subtilisin/kexin type 9 (Homo sapiens) (UniProt Q8NBP7); assay: Inhibition of PCSK9 transcription in human HepG2 cells at 5 uM by AlphaLISA method; assay type: cell-based
[3] = biological target: Proprotein convertase subtilisin/kexin type 9 (Homo sapiens) (UniProt Q8NBP7); assay: Inhibition of PCSK9 transcription in human HepG2 cells by AlphaLISA method; assay type: cell-based
[4] = Cytotoxicity against human HepG2 cells assessed as cell viability at 20 uM after 24 hrs by CCK8 assay; assay type: toxicity, cell-based; conditions: read-out: Activity
[5] = test system: Mus musculus; assay: Hypolipidemic activity in HFD induced C57BL/6 mouse assessed as reduction in serum LDL-C level at 10 to 30 mg/kg, ip administered for 3 weeks; assay type: functional, organism-based; conditions: dose 10-30 mg/kg
[6] = test system: HepG2; assay: Induction of LDL uptake in human PCSK9 knockdown HepG2 cells at 5 uM incubated for 3 hrs under dark condition by DiI-LDL DMEM staining based fluorescence microplate reader assay; assay type: functional, cell-based
[7] = Hepatotoxicity in HFD induced C57BL/6 mouse assessed as decrease in serum AST level at 10 to 30 mg/kg, ip administered for 3 weeks; assay type: toxicity, organism-based; conditions: in vivo, 504 h, dose 10-30 mg/kg
[8] = Hepatotoxicity in HFD induced C57BL/6 mouse assessed as decrease in liver index at 10 to 30 mg/kg, ip administered for 3 weeks; assay type: toxicity, organism-based; conditions: in vivo, 504 h, dose 10-30 mg/kg
[9] = test system: Hepatocyte; assay: Downregulation of PCSK9 protein level in HFD treated mouse hepatocytes at 5 to 20 uM incubated for 24 hrs by Western blotting analysis; assay type: functional, cell-based; conditions: dose 5-20 µM
[10] = biological target: Proprotein convertase subtilisin/kexin type 9 (Homo sapiens) (UniProt Q8NBP7); assay: Inhibition of PCSK9 (unknown origin) promoter activity expressed in HNF1alpha knockdown HEK293 cells co-transfected with SV40 incubated for 24 hrs by dual luciferase assay; assay type: cell-based
[11] = Hepatotoxicity in HFD induced C57BL/6 mouse assessed as decrease in serum ALT level at 10 to 30 mg/kg, ip administered for 3 weeks; assay type: toxicity, organism-based; conditions: in vivo, 504 h, dose 10-30 mg/kg
[12] = test system: HepG2; assay: Induction of LDL uptake in human LDLR knockdown HepG2 cells at 5 uM incubated for 3 hrs under dark condition by DiI-LDL DMEM staining based fluorescence microplate reader assay; assay type: functional, cell-based
[13] = test system: HepG2; assay: Downregulation of PCSK9 protein level in human HepG2 cells at 5 uM after 3 hrs by Western blotting analysis; assay type: functional, cell-based
[14] = test system: HepG2; assay: Downregulation of PCSK9 mRNA level in HNF1alpha knockdown human HepG2 cells incubated for 24 hrs by qRT-PCR analysis; assay type: functional, cell-based
[15] = biological target: Proprotein convertase subtilisin/kexin type 9 (Homo sapiens) (UniProt Q8NBP7); assay: Inhibition of PCSK9 (unknown origin) promoter activity expressed in HNF1alpha overexpressed HEK293 cells co-transfected with SV40 incubated for 24 hrs by dual luciferase assay; assay type: cell-based
[16] = test system: HepG2; assay: Downregulation of PCSK9 protein level in HNF1alpha knockdown human HepG2 cells at 10 uM incubated for 24 hrs by Western blotting analysis; assay type: functional, cell-based
[17] = test system: Mus musculus; assay: Hypolipidemic activity in HFD induced C57BL/6 mouse assessed as reduction in serum TC level at 10 to 30 mg/kg, ip administered for 3 weeks; assay type: functional, organism-based; conditions: dose 10-30 mg/kg
[18] = test system: HepG2; assay: Induction of LDL uptake in HNF1alpha knockdown human HepG2 cells at 5 uM incubated for 3 hrs under dark condition by DiI-LDL DMEM staining based fluorescence microplate reader assay; assay type: functional, cell-based
[19] = test system: HepG2; assay: Upregulation of LDLR protein level in HNF1alpha knockdown human HepG2 cells at 10 uM incubated for 24 hrs by Western blotting analysis; assay type: functional, cell-based
[20] = test system: Mus musculus; assay: Hypolipidemic activity in HFD induced C57BL/6 mouse assessed as reduction in serum VLDL-C level at 10 to 30 mg/kg, ip administered for 3 weeks; assay type: functional, organism-based; conditions: dose 10-30 mg/kg
[21] = test system: HepG2; assay: Upregulation of LDLR protein level in human HepG2 cells by Western blotting analysis; assay type: functional, cell-based
[22] = biological target: Hepatocyte nuclear factor 1-alpha (Homo sapiens) (UniProt P20823); assay: Binding affinity to HNF1alpha in human HepG2 cells assessed as increase in thermal stability at 10 uM after 1 hr by CETSA; assay type: cell-based
[23] = test system: HepG2; assay: Upregulation of LDLR mRNA level in HNF1alpha knockdown human HepG2 cells incubated for 24 hrs by qRT-PCR analysis; assay type: functional, cell-based
[24] = test system: HepG2; assay: Upregulation of LDLR protein level in human HepG2 cells at 5 uM after 6 hrs by Western blotting analysis; assay type: functional, cell-based
[25] = Nephrotoxicity in HFD induced C57BL/6 mouse assessed as change in serum UREA level at 10 to 30 mg/kg, ip administered for 3 weeks; assay type: toxicity, organism-based; conditions: in vivo, 504 h, dose 10-30 mg/kg
[26] = test system: HepG2; assay: Inhibition of HNF1alpha nuclear transport in human HepG2 cells at 1 to 10 uM after 24 hrs by Western blotting analysis; assay type: functional, cell-based; conditions: dose 1-10 µM
[27] = test system: Mus musculus; assay: Hypolipidemic activity in HFD induced C57BL/6 mouse assessed as reduction in serum TG level at 10 to 30 mg/kg, ip administered for 3 weeks; assay type: functional, organism-based; conditions: dose 10-30 mg/kg
[28] = Effect on HEK293 cell viability at 20 uM; assay type: toxicity, cell-based; conditions: human, hek293, 20 µM
[29] = biological target: Proprotein convertase subtilisin/kexin type 9 (Homo sapiens) (UniProt Q8NBP7); assay: Inhibition of PCSK9 (unknown origin) promoter activity expressed in HEK293 cells co-transfected with SV40 incubated for 24 hrs by dual luciferase assay; assay type: cell-based; conditions: dose 1-20 µM
[30] = test system: Mus musculus; assay: Upregulation of […] protein level in HFD induced C57BL/6 mouse liver at 10 to 30 mg/kg, ip administered for 3 weeks by Western blotting analysis; assay type: functional, organism-based; conditions: dose 10-30 mg/kg
[31] = test system: HepG2; assay: Effect on HNF1alpha protein level in human HepG2 cells at 5 uM incubated for 24 hrs by Western blotting analysis; assay type: functional, cell-based
[32] = test system: HepG2; assay: Downregulation of PCSK9 protein level in human HepG2 cells by Western blotting analysis; assay type: functional, cell-based; conditions: dose 1-20 µM
[33] = Toxicity in HFD induced C57BL/6 mouse assessed as change in food intake at 10 to 30 mg/kg, ip administered for 3 weeks; assay type: organism-based; conditions: in vivo, 504 h, dose 10-30 mg/kg
[34] = test system: Hepatocyte; assay: Downregulation of PCSK9 mRNA level in HFD treated mouse hepatocytes at 5 to 20 uM incubated for 24 hrs by qRT-PCR analysis; assay type: functional, cell-based; conditions: dose 5-20 µM
[35] = test system: Mus musculus; assay: Downregulation of PCSK9 protein level in HFD induced C57BL/6 mouse liver at 10 to 30 mg/kg, ip administered for 3 weeks by Western blotting analysis; assay type: functional, organism-based; conditions: dose 10-30 mg/kg
[36] = Nephrotoxicity in HFD induced C57BL/6 mouse assessed as change in serum CREA level at 10 to 30 mg/kg, ip administered for 3 weeks; assay type: toxicity, organism-based; conditions: in vivo, 504 h, dose 10-30 mg/kg
[37] = test system: HepG2; assay: Downregulation of PCSK9 mRNA level in human HepG2 cells by qRT-PCR analysis; assay type: functional, cell-based; conditions: dose 1-20 µM
[38] = test system: HepG2; assay: Upregulation of LDLR mRNA level in human HepG2 cells by qRT-PCR analysis; assay type: functional, cell-based

Hepatocyte nuclear factor 1-alpha (Homo sapiens), sequence (P20823 whole entry): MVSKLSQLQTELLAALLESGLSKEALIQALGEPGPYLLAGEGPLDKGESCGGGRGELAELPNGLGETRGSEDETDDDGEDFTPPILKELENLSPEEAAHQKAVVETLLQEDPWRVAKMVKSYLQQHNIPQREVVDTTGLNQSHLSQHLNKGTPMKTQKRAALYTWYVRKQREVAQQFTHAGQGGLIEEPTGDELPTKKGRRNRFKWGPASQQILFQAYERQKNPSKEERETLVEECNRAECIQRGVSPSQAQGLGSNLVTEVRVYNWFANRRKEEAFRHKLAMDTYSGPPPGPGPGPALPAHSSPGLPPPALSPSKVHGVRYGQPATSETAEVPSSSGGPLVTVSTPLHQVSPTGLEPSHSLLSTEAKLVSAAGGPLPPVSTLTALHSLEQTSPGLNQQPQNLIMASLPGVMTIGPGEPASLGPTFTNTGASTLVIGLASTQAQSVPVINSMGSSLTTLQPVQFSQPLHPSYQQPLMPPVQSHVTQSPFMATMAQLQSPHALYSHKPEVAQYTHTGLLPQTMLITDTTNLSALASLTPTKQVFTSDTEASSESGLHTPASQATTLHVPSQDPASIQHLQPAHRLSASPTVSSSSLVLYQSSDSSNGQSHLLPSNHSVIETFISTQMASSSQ

For `C=C1[C@@H](OC(C)=O)[C@H]2[C@@H](OC(C)=O)[C@@H](C)C[C@]2(OC(C)=O)C(=O)[C@H](C)/C=C/C(C)(C)C(=O)C[C@H]1OC(=O)C(C)C`, the Activity [1] was “Active”, the inhibition [2] was 35.7% and the inhibition [3] was “Dose-Dependent Effect”. The viability at 24 h, 20 µM [4] was > 95%.

Work on `C=C1[C@@H](OC(C)=O)[C@H]2[C@@H](OC(C)=O)[C@](C)(OC(C)=O)C[C@]2(OC(C)=O)C(=O)[C@H](C)[C@]2(C)O[C@H]2C(C)(C)[C@H](OC(C)=O)[C@@H](OC(=O)c2ccccc2)[C@H]1OC(=O)C(C)C` yielded an inhibition [2] of 0.7%.

Work on `C=C1[C@@H](OC(C)=O)[C@H]2[C@@H](OC(C)=O)[C@@H](C)C[C@]2(OC(C)=O)C(=O)[C@H](C)/C=C/C(C)(C)[C@H](O)C[C@H]1OC(=O)C(C)C` yielded an inhibition [2] of 5.7%.

In the case of `C=C1[C@@H](OC(C)=O)[C@H]2[C@@H](OC(C)=O)[C@@H](C)C[C@]2(OC(C)=O)C(=O)[C@H](C)/C=C/C(C)(C)[C@H](OC(C)=O)[C@@H](OC(C)=O)[C@H]1OC(C)=O`, the inhibition [2] is reported as 0.1%.

In the case of `C=C1[C@@H](OC(C)=O)[C@H]2[C@@H](OC(C)=O)[C@](C)(OC(C)=O)C[C@]2(OC(C)=O)C(=O)[C@H](C)/C=C/C(C)(C)C(=O)[C@@H](OC(C)=O)[C@H]1OC(=O)C(C)C`, the Activity [1] is reported as “Active”, the inhibition [2] is reported as 22.3% and the inhibition [3] is reported as “Dose-Dependent Effect”. The viability at 24 h, 20 µM [4] was > 95%.

With `C=C1[C@@H](OC(C)=O)[C@H]2[C@@H](OC(C)=O)[C@@H](C)C[C@]2(OC(C)=O)C(=O)[C@H](C)/C=C/C(C)(C)C(=O)C[C@H]1OC(C)=O` the Activity [5] was “Active”, the Activity [1] was “Dose-Dependent Effect” and the Activity [6] was “Active”. For the same compound, the Activity [7] was “Toxic”, the Activity [8] was “Toxic” and the Activity [9] was “Active”. The inhibition [10] was “inactive”, the Activity [11] was “Non-Toxic” and the Activity [12] was “inactive”. For the same compound, the Activity [13] was “Active”, the Activity [14] was “inactive” and the inhibition [15] was “Active”. The Activity [16] was “inactive”, the Activity [17] was “Active” and the Activity [18] was “inactive”. For the same compound, the Activity [19] was “inactive”, the Activity [20] was “Active” and the inhibition [2] was 36.4%. The Activity [21] was “Dose-Dependent Effect”, the Activity [22] was “Active” and the Activity [23] was “inactive”. The Activity [24] was “Active”, the Activity [25] was “Non-Toxic” and the inhibition [26] was “Active”. For the same compound, the Activity [27] was “Active”, the Activity [28] was “Non-Toxic” and the inhibition [29] was “Dose-Dependent Effect”. For the same compound, the Activity [30] was “Active”, the Activity [31] was “inactive” and the Activity [32] was “Dose-Dependent Effect”. The Activity [33] was “Non-Toxic”, the Activity [34] was “Active” and the inhibition [3] was “Dose-Dependent Effect”. The viability at 24 h, 20 µM [4] was > 95%, the Activity [35] was “Active” and the Activity [36] was “Non-Toxic”. The Activity [37] was “Dose-Dependent Effect” and the Activity [38] was “Dose-Dependent Effect”.

For `C=C1[C@@H](OC(C)=O)[C@H]2[C@@H](OC(C)=O)[C@@H](C)C[C@]2(OC(C)=O)C(=O)[C@H](C)/C=C/C(C)(C)C(=O)[C@@H](OC(C)=O)[C@H]1OC(C)=O`, the inhibition [2] was < 1%.
